# In PubChem BioAssay (NCI):
#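 Assay format: 96-well plates, 48-hour exposure. TGI is the concentration that stops growth completely.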
# Key:
# Test in all cases: NCI tumour cell line growth inhibition, 48 h
# 786-0 renal = system: 786-0 renal
# A498 renal = system: A498 renal
# A549 NSCLC = system: A549 NSCLC
# ACHN renal = system: ACHN renal
# CAKI-1 renal = system: CAKI-1 renal
# CCRF-CEM leukemia = system: CCRF-CEM leukemia
# COLO 205 colon = system: COLO 205 colon
# DLD-1 colon = system: DLD-1 colon
# DMS 114 small cell lung = system: DMS 114 small cell lung
# DMS 273 small cell lung = system: DMS 273 small cell lung
# EKVX NSCLC = system: EKVX NSCLC
# HCC-2998 colon = system: HCC-2998 colon
# HCT-116 colon = system: HCT-116 colon
# HCT-15 colon = system: HCT-15 colon
# HL-60(TB) leukemia = system: HL-60(TB) leukemia
# HOP-18 NSCLC = system: HOP-18 NSCLC
# HOP-62 NSCLC = system: HOP-62 NSCLC
# HOP-92 NSCLC = system: HOP-92 NSCLC
# HT29 colon = system: HT29 colon
# IGROV1 ovarian = system: IGROV1 ovarian
# K-562 leukemia = system: K-562 leukemia
# KM12 colon = system: KM12 colon
# KM20L2 colon = system: KM20L2 colon
# LOX IMVI melanoma = system: LOX IMVI melanoma
# LXFL 529 NSCLC = system: LXFL 529 NSCLC
# M14 melanoma = system: M14 melanoma
# M19-MEL melanoma = system: M19-MEL melanoma
# MALME-3M melanoma = system: MALME-3M melanoma
# MOLT-4 leukemia = system: MOLT-4 leukemia
# NCI-H226 lung = system: NCI-H226 lung
# NCI-H23 lung = system: NCI-H23 lung
# NCI-H460 lung = system: NCI-H460 lung
# NCI-H522 lung = system: NCI-H522 lung
# OVCAR-3 ovarian = system: OVCAR-3 ovarian
# OVCAR-4 ovarian = system: OVCAR-4 ovarian
# OVCAR-5 ovarian = system: OVCAR-5 ovarian
# OVCAR-8 ovarian = system: OVCAR-8 ovarian
# RPMI-8226 leukemia = system: RPMI-8226 leukemia
# RXF 393 renal = system: RXF 393 renal
# SF-268 CNS = system: SF-268 CNS
# SF-295 CNS = system: SF-295 CNS
# SF-539 CNS = system: SF-539 CNS
# SK-MEL-2 melanoma = system: SK-MEL-2 melanoma
# SK-MEL-28 melanoma = system: SK-MEL-28 melanoma
# SK-MEL-5 melanoma = system: SK-MEL-5 melanoma
# SK-OV-3 ovarian = system: SK-OV-3 ovarian
# SN12C renal = system: SN12C renal
# SNB-19 CNS = system: SNB-19 CNS
# SNB-75 CNS = system: SNB-75 CNS
# SNB-78 CNS = system: SNB-78 CNS
# SR leukemia = system: SR leukemia
# SW-620 colon = system: SW-620 colon
# TK-10 renal = system: TK-10 renal
# U251 CNS = system: U251 CNS
# UACC-257 melanoma = system: UACC-257 melanoma
# UACC-62 melanoma = system: UACC-62 melanoma
# UO-31 renal = system: UO-31 renal
# XF 498 CNS = system: XF 498 CNS
# BT-549 breast = system: BT-549 breast
# DU-145 prostate = system: DU-145 prostate
# HS 578T breast = system: HS 578T breast
# MCF7 breast = system: MCF7 breast
# MDA-MB-231 breast = system: MDA-MB-231 breast
# MDA-N = system: MDA-N
# NCI/ADR-RES ovarian = system: NCI/ADR-RES ovarian
# PC-3 prostate = system: PC-3 prostate
# T-47D breast = system: T-47D breast
smiles,measurement,setting,value
[N-]=[N+]=C1C(=O)C2CC3CC(C2)CC1C3,TGI,786-0 renal,> 100 µM
same,TGI,A498 renal,> 100 µM
same,TGI,A549 NSCLC,> 100 µM
same,TGI,ACHN renal,> 100 µM
same,TGI,CAKI-1 renal,> 100 µM
same,TGI,CCRF-CEM leukemia,> 100 µM
same,TGI,COLO 205 colon,> 100 µM
same,TGI,DLD-1 colon,> 100 µM
same,TGI,DMS 114 small cell lung,> 100 µM
same,TGI,DMS 273 small cell lung,> 100 µM
same,TGI,EKVX NSCLC,> 100 µM
same,TGI,HCC-2998 colon,> 100 µM
same,TGI,HCT-116 colon,> 100 µM
same,TGI,HCT-15 colon,> 100 µM
same,TGI,HL-60(TB) leukemia,> 100 µM
same,TGI,HOP-18 NSCLC,> 100 µM
same,TGI,HOP-62 NSCLC,> 100 µM
same,TGI,HOP-92 NSCLC,> 100 µM
same,TGI,HT29 colon,> 100 µM
same,TGI,IGROV1 ovarian,> 100 µM
same,TGI,K-562 leukemia,> 100 µM
same,TGI,KM12 colon,> 100 µM
same,TGI,KM20L2 colon,> 100 µM
same,TGI,LOX IMVI melanoma,> 100 µM
same,TGI,LXFL 529 NSCLC,> 100 µM
same,TGI,M14 melanoma,> 100 µM
same,TGI,M19-MEL melanoma,> 100 µM
same,TGI,MALME-3M melanoma,> 100 µM
same,TGI,MOLT-4 leukemia,> 100 µM
same,TGI,NCI-H226 lung,> 100 µM
same,TGI,NCI-H23 lung,> 100 µM
same,TGI,NCI-H460 lung,> 100 µM
same,TGI,NCI-H522 lung,> 100 µM
same,TGI,OVCAR-3 ovarian,> 100 µM
same,TGI,OVCAR-4 ovarian,> 100 µM
same,TGI,OVCAR-5 ovarian,> 100 µM
same,TGI,OVCAR-8 ovarian,> 100 µM
same,TGI,RPMI-8226 leukemia,> 100 µM
same,TGI,RXF 393 renal,> 100 µM
same,TGI,SF-268 CNS,> 100 µM
same,TGI,SF-295 CNS,> 100 µM
same,TGI,SF-539 CNS,> 100 µM
same,TGI,SK-MEL-2 melanoma,> 100 µM
same,TGI,SK-MEL-28 melanoma,> 100 µM
same,TGI,SK-MEL-5 melanoma,> 100 µM
same,TGI,SK-OV-3 ovarian,> 100 µM
same,TGI,SN12C renal,> 100 µM
same,TGI,SNB-19 CNS,> 100 µM
same,TGI,SNB-75 CNS,> 100 µM
same,TGI,SNB-78 CNS,> 100 µM
same,TGI,SR leukemia,> 100 µM
same,TGI,SW-620 colon,> 100 µM
same,TGI,TK-10 renal,> 100 µM
same,TGI,U251 CNS,> 100 µM
same,TGI,UACC-257 melanoma,> 100 µM
same,TGI,UACC-62 melanoma,> 100 µM
same,TGI,UO-31 renal,> 100 µM
same,TGI,XF 498 CNS,> 100 µM
COC(=O)CC1NC(=O)C1C1(C)OCCO1 (stereo not given),TGI,786-0 renal,> 100 µM
same,TGI,A498 renal,> 100 µM
same,TGI,A549 NSCLC,> 100 µM
same,TGI,ACHN renal,> 100 µM
same,TGI,COLO 205 colon,> 100 µM
same,TGI,DLD-1 colon,> 100 µM
same,TGI,DMS 114 small cell lung,> 100 µM
same,TGI,DMS 273 small cell lung,> 100 µM
same,TGI,EKVX NSCLC,> 100 µM
same,TGI,HCC-2998 colon,> 100 µM
same,TGI,HCT-116 colon,> 100 µM
same,TGI,HCT-15 colon,> 100 µM
same,TGI,HL-60(TB) leukemia,> 100 µM
same,TGI,HOP-62 NSCLC,> 100 µM
same,TGI,HT29 colon,> 100 µM
same,TGI,IGROV1 ovarian,> 100 µM
same,TGI,KM20L2 colon,> 100 µM
same,TGI,LOX IMVI melanoma,> 100 µM
same,TGI,LXFL 529 NSCLC,> 100 µM
same,TGI,M14 melanoma,> 100 µM
same,TGI,M19-MEL melanoma,> 100 µM
same,TGI,MALME-3M melanoma,> 100 µM
same,TGI,NCI-H226 lung,> 100 µM
same,TGI,NCI-H23 lung,> 100 µM
same,TGI,NCI-H460 lung,> 100 µM
same,TGI,OVCAR-3 ovarian,> 100 µM
same,TGI,OVCAR-4 ovarian,> 100 µM
same,TGI,OVCAR-8 ovarian,> 100 µM
same,TGI,RPMI-8226 leukemia,> 100 µM
same,TGI,RXF 393 renal,> 100 µM
same,TGI,SF-268 CNS,> 100 µM
same,TGI,SF-295 CNS,> 100 µM
same,TGI,SF-539 CNS,> 100 µM
same,TGI,SK-MEL-2 melanoma,> 100 µM
same,TGI,SK-MEL-28 melanoma,> 100 µM
same,TGI,SK-MEL-5 melanoma,> 100 µM
same,TGI,SN12C renal,> 100 µM
same,TGI,SNB-19 CNS,> 100 µM
same,TGI,SNB-75 CNS,97.7 µM
same,TGI,SR leukemia,> 100 µM
same,TGI,SW-620 colon,> 100 µM
same,TGI,TK-10 renal,> 100 µM
same,TGI,U251 CNS,> 100 µM
same,TGI,UACC-257 melanoma,> 100 µM
same,TGI,UACC-62 melanoma,> 100 µM
same,TGI,UO-31 renal,> 100 µM
same,TGI,XF 498 CNS,> 100 µM
Cc1cc(N(CCC#N)CCC#N)ccc1/C=C1N=C(/C=C\c2ccccc2)N(c2ccc(Cl)cc2)C\1=O,TGI,786-0 renal,> 100 µM
same,TGI,A498 renal,> 100 µM
same,TGI,A549 NSCLC,> 100 µM
same,TGI,ACHN renal,> 100 µM
same,TGI,BT-549 breast,> 100 µM
same,TGI,CAKI-1 renal,> 100 µM
same,TGI,CCRF-CEM leukemia,> 100 µM
same,TGI,COLO 205 colon,5.06 µM
same,TGI,DLD-1 colon,> 100 µM
same,TGI,DMS 114 small cell lung,> 100 µM
same,TGI,DMS 273 small cell lung,> 100 µM
same,TGI,DU-145 prostate,> 100 µM
same,TGI,EKVX NSCLC,> 100 µM
same,TGI,HCC-2998 colon,> 100 µM
same,TGI,HCT-116 colon,> 100 µM
same,TGI,HCT-15 colon,> 100 µM
same,TGI,HL-60(TB) leukemia,> 100 µM
same,TGI,HOP-18 NSCLC,> 100 µM
same,TGI,HOP-62 NSCLC,> 63.5 µM
same,TGI,HOP-92 NSCLC,> 100 µM
same,TGI,HS 578T breast,> 100 µM
same,TGI,HT29 colon,> 100 µM
same,TGI,IGROV1 ovarian,> 100 µM
same,TGI,K-562 leukemia,> 100 µM
same,TGI,KM12 colon,> 100 µM
same,TGI,KM20L2 colon,> 31.9 µM
same,TGI,LOX IMVI melanoma,> 100 µM
same,TGI,M14 melanoma,> 48.2 µM
same,TGI,M19-MEL melanoma,> 82.7 µM
same,TGI,MALME-3M melanoma,> 72 µM
same,TGI,MCF7 breast,> 100 µM
same,TGI,MDA-MB-231 breast,> 100 µM
same,TGI,MDA-N,> 100 µM
same,TGI,MOLT-4 leukemia,> 100 µM
same,TGI,NCI-H226 lung,> 100 µM
same,TGI,NCI-H23 lung,> 100 µM
same,TGI,NCI-H460 lung,> 100 µM
same,TGI,NCI-H522 lung,> 100 µM
same,TGI,NCI/ADR-RES ovarian,> 100 µM
same,TGI,OVCAR-3 ovarian,> 100 µM
same,TGI,OVCAR-4 ovarian,> 100 µM
same,TGI,OVCAR-5 ovarian,> 100 µM
same,TGI,OVCAR-8 ovarian,> 100 µM
same,TGI,PC-3 prostate,> 100 µM
same,TGI,RPMI-8226 leukemia,> 100 µM
same,TGI,RXF 393 renal,> 100 µM
same,TGI,SF-268 CNS,> 100 µM
same,TGI,SF-295 CNS,> 100 µM
same,TGI,SF-539 CNS,> 100 µM
same,TGI,SK-MEL-2 melanoma,> 100 µM
same,TGI,SK-MEL-28 melanoma,> 100 µM
same,TGI,SK-MEL-5 melanoma,17.5 µM
same,TGI,SK-OV-3 ovarian,> 100 µM
same,TGI,SN12C renal,> 100 µM
same,TGI,SNB-19 CNS,> 100 µM
same,TGI,SNB-75 CNS,> 100 µM
same,TGI,SNB-78 CNS,> 100 µM
same,TGI,SR leukemia,> 100 µM
same,TGI,SW-620 colon,> 100 µM
same,TGI,T-47D breast,> 100 µM
same,TGI,TK-10 renal,> 100 µM
same,TGI,U251 CNS,> 100 µM
same,TGI,UACC-257 melanoma,> 100 µM
same,TGI,UO-31 renal,> 53.9 µM
same,TGI,XF 498 CNS,> 100 µM
